According to patent publication US6699678B1, “Chlamydia trachomatis specific peptides and their use in diagnostic assays” (Savyon Diagnostics Ltd., priority 1997, dated 2004):

Format: physicochemical
Excerpt: c. Stabilizing the kit for longer shelf life.
Results: The wash buffer that enabled only three washing steps was the one that contained non-ionic detergent, this being the above-noted PBS-TWEEN buffer (see constituent no. (ii) in the above list).
This is also the case for the other reagents used in the improved kit, as mentioned above.

storage stability at 4° C. (in words) | storage stability at 37° C. (in words) | Compound
for one year | stable for one month | CCN(Cc1cccc(S(=O)(=O)[O-])c1)c1ccc(C(=C2C=CC(=[N+](CC)Cc3cccc(S(=O)(=O)[O-])c3)C=C2)c2ccccc2S(=O)(=O)[O-])cc1.[Na+].[Na+] [blue brilliant]
for one year | stable for one month | O=S(=O)([O-])c1ccc(N=Nc2c(O)ccc3cc(S(=O)(=O)[O-])ccc23)cc1.[Na+].[Na+] [yellow sunset]
